Assay results reported in patent US20250248965A1, “HEXAHYDRONAPHTHALEN-2-ONE DERIVATIVES FOR USE AGAINST A CORONAVIRUS INFECTION” (TÁMOGATOTT KUTATÓCSOPORTOK IRODÁJA, priority 2021, published 2025).

What was measured:
Type in all cases: cell-based
[1] = Alamar Blue cell viability (cytotoxicity) assay; conditions: African green monkey, Vero E6 host cells
Protocol: (§1) Compounds to be tested were dissolved in DMSO at 20 mM concentration and stored at −20° C. Stock solutions were diluted with DMEM medium to result 100 μM concentration. The DMSO content was 0.5% in the highest concentration containing wells.
(§2) In vitro cytotoxicity testing of the compounds was performed by the Alamar Blue cell viability assay. Briefly, Vero E6 cells were plated in a 96-well flat bottom tissue culture plates in 10% FBS containing DMEM media (5000 cells/100 μL) one day prior to experiment. Before the test, 50 μL supernatant was removed and replaced with 50 μL DMEM serum free (SFM) medium. […] Two days after, 20 μL Alamar Blue (resazurin sodium salt, Merck) solution (0.15 mg/mL in PBS, filtered […] Merck) was added to each well and after 3-3.5 hrs of incubation the fluorescence was measured at λEx=530/30 and at λEM=610/10 nm using a Synergy H4 multi-mode microplate reader (BioTek). All measurements were performed in quadruplets and the mean IC50 values together with SEM were represented on the graphs.

Vero E6 cells = assay: Alamar Blue cell viability (cytotoxicity) assay; conditions: 48 hrs
Protocol: as §1, §2

SARS-CoV-2 [2] = assay: Viral copy number by RT-qPCR from supernatant; conditions: supernatant of infected Vero E6 cells
SARS-CoV-2 [3] = conditions: SARS-CoV-2 infected Vero E6 cells, 48 hours of incubation

## CCN(CC)CCCC(C)Nc1ccnc2cc(Cl)ccc12 (stereo not drawn) [Chloroquine]
[1]
  IC50 at 48 h: 34 µM

## CC(=O)Oc1ccccc1C(=O)Nc1ncc([N+](=O)[O-])s1 [Nitazoxanide]
Vero E6 cells; range up to 100 μM
  toxicity on the host cells: around 35%

## C=C(C)[C@@H]1C[C@@]2(C)C(=CC1=O)CC[C@@H](O)[C@@H]2C [Petasol, (3S,4aR,5R,6R)-6-hydroxy-4a,5-dimethyl-3-prop-1-en-2-yl-3,4,5,6,7,8-hexahydronaphthalen-2-one]
Vero E6 cells; Vero E6 host cells
  in vitro cytotoxicity (not cytotoxic up to): > 100 µM
SARS-CoV-2 [2]
  viral RNA copy numbers (antiviral effect): high similarity with the TCID50 values

## CC(C)=C1C[C@@]2(C)C(=CC1=O)CC[C@@H](O)[C@@H]2C [isopetasol, (4aR,5R,6R)-6-hydroxy-4a,5-dimethyl-3-propan-2-ylidene-5,6,7,8-tetrahydro-4H-naphthalen-2-one]
SARS-CoV-2 [3]
  antiviral effect (virus-induced CPE, TCID50/mL): markedly different than petasol

## C=C(C)[C@H]1C[C@@]2(C)C(=CC1=O)CC[C@@H](O)[C@@H]2C [neopetasol, (3R,4aR,5R,6R)-6-hydroxy-4a,5-dimethyl-3-prop-1-en-2-yl-3,4,5,6,7,8-hexahydronaphthalen-2-one]
SARS-CoV-2 [3]
  antiviral effect (virus-induced CPE, TCID50/mL): markedly different than petasol
